# Measurements as given in PubChem BioAssay (NCI).
#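 Method: 48-hour compound exposure of cells in 96-well plates, five concentrations, linear interpolation of endpoints. The concentration for 50% growth inhibition is given as GI50. At the TGI there is no net growth.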
# Assays:
# Test in all cases: inhibition of tumour cell growth, NCI panel, 48 h
# [1] = test system: HT29 colon
# [2] = test system: MOLT-4 leukemia
# [3] = test system: SW-620 colon
# [4] = test system: HCT-116 colon
# [5] = test system: A549 NSCLC
# [6] = test system: DU-145 prostate
# [7] = test system: M14 melanoma
# [8] = test system: RXF 393 renal
# [9] = test system: NCI/ADR-RES ovarian
# [10] = test system: EKVX NSCLC
# [11] = test system: UACC-62 melanoma
# [12] = test system: SF-295 CNS
# [13] = test system: HCC-2998 colon
# [14] = test system: ACHN renal
# [15] = test system: SK-MEL-5 melanoma
# [16] = test system: 786-0 renal
# [17] = test system: NCI-H522 lung
# [18] = test system: HOP-62 NSCLC
# [19] = test system: NCI-H23 lung
# [20] = test system: CCRF-CEM leukemia
# [21] = test system: SK-MEL-28 melanoma
# [22] = test system: NCI-H460 lung
# [23] = test system: LOX IMVI melanoma
# [24] = test system: SK-OV-3 ovarian
# [25] = test system: K-562 leukemia
# [26] = test system: CAKI-1 renal
# [27] = test system: KM12 colon
# [28] = test system: UO-31 renal
# [29] = test system: OVCAR-3 ovarian
# [30] = test system: SNB-19 CNS
# [31] = test system: HS 578T breast
# [32] = test system: PC-3 prostate
# [33] = test system: U251 CNS
# [34] = test system: HL-60(TB) leukemia
# [35] = test system: IGROV1 ovarian
# [36] = test system: COLO 205 colon
# [37] = test system: SN12C renal
# [38] = test system: SR leukemia
# [39] = test system: UACC-257 melanoma
# [40] = test system: MDA-MB-435
# [41] = test system: SF-539 CNS
# [42] = test system: SK-MEL-2 melanoma
# [43] = test system: OVCAR-5 ovarian
# [44] = test system: SF-268 CNS
# [45] = test system: BT-549 breast
# [46] = test system: OVCAR-4 ovarian
# [47] = test system: HCT-15 colon
# [48] = test system: NCI-H226 lung
# [49] = test system: MCF7 breast
# [50] = test system: OVCAR-8 ovarian
# [51] = test system: A498 renal
# [52] = test system: MDA-MB-231 breast
# [53] = test system: MALME-3M melanoma
# [54] = test system: RPMI-8226 leukemia
# [55] = test system: T-47D breast
# [56] = test system: SNB-75 CNS
smiles,measurement,setting,value
Cn1c(=O)cc2c3c(c(NCCCO)ccc31)C(=O)c1ccccc1-2,GI50,[1],2.16 µM
same,TGI,[1],> 100 µM
same,GI50,[2],2.07 µM
same,TGI,[2],> 100 µM
same,GI50,[3],0.875 µM
same,TGI,[3],> 100 µM
same,GI50,[4],0.491 µM
same,TGI,[4],> 100 µM
same,GI50,[5],3.48 µM
same,TGI,[5],> 100 µM
same,GI50,[6],7.62 µM
same,TGI,[6],> 100 µM
same,GI50,[7],3.13 µM
same,TGI,[7],> 100 µM
same,GI50,[8],8.64 µM
same,TGI,[8],> 100 µM
same,GI50,[9],5.2 µM
same,TGI,[9],> 100 µM
same,GI50,[10],5.23 µM
same,TGI,[10],> 100 µM
same,GI50,[11],2.45 µM
same,TGI,[11],> 100 µM
same,GI50,[12],1.76 µM
same,TGI,[12],> 100 µM
same,GI50,[13],5.23 µM
same,TGI,[13],> 100 µM
same,GI50,[14],1.21 µM
same,TGI,[14],> 100 µM
same,GI50,[15],3.97 µM
same,TGI,[15],> 100 µM
same,GI50,[16],1.53 µM
same,TGI,[16],> 100 µM
same,GI50,[17],2.5 µM
same,TGI,[17],> 100 µM
same,GI50,[18],19.2 µM
same,TGI,[18],> 100 µM
same,GI50,[19],3.37 µM
same,TGI,[19],> 100 µM
same,GI50,[20],3.29 µM
same,TGI,[20],> 100 µM
same,GI50,[21],38 µM
same,TGI,[21],> 100 µM
same,GI50,[22],2.31 µM
same,TGI,[22],> 100 µM
same,GI50,[23],1.44 µM
same,TGI,[23],20.7 µM
same,GI50,[24],9.81 µM
same,TGI,[24],> 100 µM
same,GI50,[25],2.09 µM
same,TGI,[25],64.3 µM
same,GI50,[26],1.79 µM
same,TGI,[26],> 100 µM
same,GI50,[27],6.34 µM
same,TGI,[27],> 100 µM
same,GI50,[28],1.09 µM
same,TGI,[28],> 100 µM
same,GI50,[29],5.69 µM
same,TGI,[29],> 100 µM
same,GI50,[30],4.46 µM
same,TGI,[30],> 100 µM
same,GI50,[31],3.68 µM
same,TGI,[31],> 100 µM
same,GI50,[32],3 µM
same,TGI,[32],> 100 µM
same,GI50,[33],2.6 µM
same,TGI,[33],> 100 µM
same,GI50,[34],2.98 µM
same,TGI,[34],> 100 µM
same,GI50,[35],4.98 µM
same,TGI,[35],> 100 µM
same,GI50,[36],3.86 µM
same,TGI,[36],> 100 µM
same,GI50,[37],3.45 µM
same,TGI,[37],> 100 µM
same,GI50,[38],0.694 µM
same,TGI,[38],13.4 µM
same,GI50,[39],5.37 µM
same,TGI,[39],> 100 µM
same,GI50,[40],3.47 µM
same,TGI,[40],> 100 µM
same,GI50,[41],8.8 µM
same,TGI,[41],> 100 µM
same,GI50,[42],6.85 µM
same,TGI,[42],> 100 µM
same,GI50,[43],32.8 µM
same,TGI,[43],> 100 µM
same,GI50,[44],6.75 µM
same,TGI,[44],> 100 µM
same,GI50,[45],6.67 µM
same,TGI,[45],> 100 µM
same,GI50,[46],7.89 µM
same,TGI,[46],> 100 µM
same,GI50,[47],3.86 µM
same,TGI,[47],> 100 µM
same,GI50,[48],3.01 µM
same,TGI,[48],> 100 µM
same,GI50,[49],3.46 µM
same,TGI,[49],> 100 µM
same,GI50,[50],1.48 µM
same,TGI,[50],> 100 µM
same,GI50,[51],1.77 µM
same,TGI,[51],> 100 µM
same,GI50,[52],4.77 µM
same,TGI,[52],> 100 µM
same,GI50,[53],2.12 µM
same,TGI,[53],7.35 µM
same,GI50,[54],2.89 µM
same,TGI,[54],> 100 µM
same,GI50,[55],13 µM
same,TGI,[55],> 100 µM
same,GI50,[56],4.36 µM
same,TGI,[56],> 100 µM
